Columns and labels:
[1] = molecular target: T1, human SPPL2a (Homo sapiens, UniProt Q8TCT8); experiment: Sppl2a RGA (reporter gene assay) in HEK293 cells; assay type: cell-based; parameters: expressed in transfected cells; host or cells: HEK293 (transient); details: NT-TNF-VP16-Gal4 substrate, Gal4-luciferase reporter, 24 h
T1 sequence (Q8TCT8 26-520): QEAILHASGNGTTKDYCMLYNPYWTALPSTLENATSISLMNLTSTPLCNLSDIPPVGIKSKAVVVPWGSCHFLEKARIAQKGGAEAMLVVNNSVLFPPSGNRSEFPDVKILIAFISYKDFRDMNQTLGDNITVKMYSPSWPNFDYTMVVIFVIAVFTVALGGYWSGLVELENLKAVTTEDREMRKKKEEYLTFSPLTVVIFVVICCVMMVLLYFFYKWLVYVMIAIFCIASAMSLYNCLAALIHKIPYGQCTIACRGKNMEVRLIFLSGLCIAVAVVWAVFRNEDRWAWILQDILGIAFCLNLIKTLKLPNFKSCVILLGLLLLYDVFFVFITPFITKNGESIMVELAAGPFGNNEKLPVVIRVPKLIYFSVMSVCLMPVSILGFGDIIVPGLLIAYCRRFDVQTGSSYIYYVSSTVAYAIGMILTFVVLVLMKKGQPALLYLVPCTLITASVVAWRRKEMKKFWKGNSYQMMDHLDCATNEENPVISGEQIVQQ
From the text: Sppl2a RGA (Reporter Gene Assay):
Sppl2a is an intramembrane aspartyl protease with similarities to presenilin, the active subunit of the γ-secretase complex. The assay is based on the coupling of the proteolytic degradation of a membrane bound synthetic substrate (VP16-Gal4 fusion protein with the N-terminal domain of TNF alpha), which migrates to the nucleus upon cleavage, with the Gal4 driven expression of luciferase. Inhibition of Sppl2a results in a reduction of nuclear VP16-Gal4 activator and therefore in a reduction of the production of luciferase. The luciferase dependent-luminescence is plotted against the concentrations of compound to generate a dose response curve, which allows the calculation of the IC50 value.
DNA vectors encoding human Sppl2a, NT-TNF-VP16-Gal4 and a Gal4-luciferase reporter were transiently transfected in HEK293 cells. In a typical experiment 5 μg plasmid for SPPL2a, 10 μg plasmid encoding the reporter Gal4-luciferase and 20 μg plasmid encoding the substrate NT-TF-VP16-Gal4 were mixed together. The DNA mixture was combined with 107 μl FuGENE® (Promega), 735 μl Opti-MEM® (Life Technologies) and incubated for 5 minutes at RT. To this mixture 20 mL of concentrated HEK293 cells were added and thoroughly mixed. The cell suspension was distributed to a white solid 384 well plate. Within 5 hours, 50 nl of compound in DMSO was stamped into the wells via pintool. The plate was incubated for 24 h at 37° C., 5% CO2 in a humidified incubator, before the addition of 25 μl Bright Glo. After incubation at RT for 5 min, the plate was transferred to a luminometer and the luminescence was measured. The IC50 was determined by plotting compound concentration vs. normalized luminescence values.

[2] = molecular target: T1, human SPPL2a; experiment: Sppl2a TL (translocation) imaging assay in U-2 OS cells; assay type: cell-based; parameters: expressed in transfected cells; details: U-2 OS cells expressing human SPPL2a and EGFP-TNFα(aa1-76) NTF substrate; 24 h
Method: SPPL2a, TL in U-2 OS Cells. Stable U-2 OS cell lines expressing human SPPL2a constitutively and a EGFP-labeled TNFα(aa1-76) NTF substrate under a doxycycline-regulated promoter were used for the imaging assays. Cells were seeded at 3000 cells/30 μL/384-well in DMEM/GlutaMax™-I (Invitrogen) supplemented with tetracycline-free 10% FBS (Amimed) and incubated at 37° C., 5% CO2 for 3-4 h. Subsequently, 3.3 μL of inhibitors, prediluted in doxycycline-containing medium for 11-point concentration-response curves, were added to each well using a CyBi well liquid handling device (Cybio AG, Jena, Germany) to result in final inhibitor concentrations ranging from 100 μM to 1 nM (final DMSO concentration 0.9% (v/v)) and 5 μg/mL doxycycline). The cells were incubated with inhibitor at 37° C., 5% CO2 for 24 h. Thereafter cell were fixed in 4% PFA/PBS and in parallel, nuclei were stained with Hoechst (Invitrogen) 1:5000 in PBS for 30 min. The plates were imaged using a Cellomics ArrayScan VTI HCS reader with 10×/0.3NA objective (Thermo Fisher Scientific, USA). Six images per well were acquired. Images for the EGFP signal (Ex395, Em509) and the Hoechst nuclear dye (Ex350, Em425) were acquired simultaneously with image analysis using the “Nuclear Translocation” assay algorithm of the Cellomics ArrayScan software. Nuclei were detected based on the Hoechst staining, the nuclear mask was transferred to the EGFP channel, and a 4 pixel wide cytoplasm ring region was defined around the nucleus. The intensity of the EGFP signal was measured both in the nuclear and in the cytoplasm ring region of each individual cell (in general 800-1000 individual cells were analyzed per well), and the difference of the average nuclear versus average cytoplasmic intensity of the EGFP signal was calculated (“CircRingAvgIntenDiffCh2”=“CircAvgIntenCh2”−“RingAvgIntenCh2”). Additionally the number of cells were acquired (feature termed “ValidCellCount”) and used to calculate cell toxicity (CC50). Percent inhibition was calculated relative to the positive (0.5 μM LY-411,575=100% inhibition) and negative (DMSO=0% inhibition) controls. The IC50 value was calculated from the plot of percentage of inhibition vs inhibitor concentration using nonlinear regression analysis software, e.g., Origin (OriginLab Corp.).

| SMILES | IC50 [1] [nM] | IC50 [2] [nM] |
| --- | --- | --- |
| O=C(NC[C@H](C(=O)N[C@@H]1C(=O)N2CCCN2C(=O)c2ccccc21)C(F)(F)F)c1sc(-c2ccc(C(F)(F)F)nc2)nc1Cl [Example 40, 4-Chloro-N-((R)-2-(((S)-5,11-dioxo-2,3,10,11-tetrahydro-1H,5H-benzo[d]pyrazolo [1,2-a][1,2]diazepin-10-yl)carbamoyl)-3,3,3-trifluoropropyl)-2-(6-(trifluoromethyl)pyridin-3-yl)thiazole-5-carboxamide] | 42 | 57 |
| Cc1nc(C2=CCOCC2)sc1C(=O)NC[C@H](C(=O)N[C@@H]1C(=O)N2CCCN2Cc2ccccc21)C(F)(F)F [Example 44, 2-(3,6-Dihydro-2H-pyran-4-yl)-4-methyl-N-((R)-3,3,3-trifluoro-2-(((S)-11-oxo-2,3,10,11-tetrahydro-1H,5H-benzo[d]pyrazolo [1,2-a][1,2]diazepin-10-yl)carbamoyl)pro-pyl)thiazole-5-carboxamide] | 27 | 67 |
| Cc1noc(C)c1C(=O)NC[C@H](C(=O)N[C@@H]1C(=O)N2CCCN2C(=O)c2ccccc21)C(F)(F)F [Example 48, N-((R)-2-(((S)-5,11-Dioxo-2,3,10,11-tetrahydro-1H,5H-benzo[d]pyrazolo [1,2-a][1,2]diazepin-10-yl)carbamoyl)-3,3,3-trifluoropropyl)-3,5-dimethylisoxazole-4-carboxamide] | 22 | 85 |
| CC[C@H](CNC(=O)c1oncc1C)C(=O)N[C@@H]1C(=O)N2CCCN2Cc2ccccc21 [Example 51, 4-Methyl-N-((R)-2-(((S)-11-oxo-2,3,10,11-tetrahydro-1H,5H-benzo[d]pyrazolo [1,2-a][1,2]diazepin-10-yl)carbamoyl)butyl) isoxazole-5-carboxamide] | 52 | 99 |
| O=C(NC[C@H](C(=O)N[C@@H]1C(=O)N2CCCN2Cc2c(F)cccc21)C1CC1)c1sc(C2CC2)nc1Cl [Example 54, 4-Chloro-2-cyclopropyl-N-((R)-2-cyclopropyl-3-(((S)-6-fluoro-11-oxo-2,3,10,11-tetrahydro-1H,5H-benzo[d]pyrazolo [1,2-a][1,2]diazepin-10-yl)amino)-3-oxopropyl)thiazole-5-carboxamide] | 48 | 129 |
| Cc1nc(Cl)c(C(=O)NC[C@H](C(=O)N[C@@H]2C(=O)N3CCCN3Cc3c(F)cccc32)C2CC2)s1 [Example 55, 4-Chloro-N-((R)-2-cyclopropyl-3-(((S)-6-fluoro-11-oxo-2,3,10,11-tetrahydro-1H,5H-benzo[d]pyrazolo [1,2-a][1,2]diazepin-10-yl)amino)-3-oxopropyl)-2-methylthiazole-5-carboxamide] | 152 | 163 |
| Cc1nc(Cc2ccccc2)sc1C(=O)NC[C@@H](C)C(=O)N[C@@H]1C(=O)N2CCCN2Cc2ccccc21 [Example 58, 2-Benzyl-4-methyl-N-((R)-2-methyl-3-oxo-3-(((S)-11-oxo-2,3,10,11-tetrahydro-1H,5H-benzo[d]pyrazolo [1,2-a][1,2]diazepin-10-yl)amino)propyl) thiazole-5-carboxamide] | 194 | 373 |
| CC[C@H](CNC(=O)c1sc(C2CC2)nc1C(F)(F)F)C(=O)N[C@@H]1C(=O)N2CC3(CC3)CN2C(=O)c2ccccc21 [Example 59, 2-Cyclopropyl-N-((R)-2-(((S)-5,11-dioxo-10,11-dihydro-1H,3H,5H-spiro[benzo[d]pyr-azolo[1,2-a][1,2]diazepine-2,1′-cyclopropan]-10-yl)carbamoyl)butyl)-4-(trifluoromethyl) thiazole-5-carboxamide] | 661 | 555 |
| Cc1ccn(C)c1C(=O)NC[C@@H](C)C(=O)N[C@@H]1C(=O)N2CCCN2Cc2ccccc21 [Example 60, 1,3-dimethyl-N-((R)-2-methyl-3-oxo-3-(((S)-11-oxo-2,3,10,11-tetrahydro-1H,5H-benzo[d]pyrazolo [1,2-a][1,2]diazepin-10-yl)amino)propyl)-1H-pyrrole-2-carboxamide] | 277 | 580 |
| C[C@H](CNC(=O)c1ccnn1C)C(=O)N[C@@H]1C(=O)N2CCCN2Cc2ccccc21 [Example 61, 1-methyl-N-((R)-2-methyl-3-oxo-3-(((S)-11-oxo-2,3,10,11-tetrahydro-1H,5H-benzo[d]pyrazolo [1,2-a][1,2]diazepin-10-yl)amino)propyl)-1H-pyrazole-5-carboxamide] | 691 | 686 |

The remaining compounds from weak to strong by IC50 [1], led by results:

| IC50 [1] [nM] | IC50 [2] [nM] | SMILES |
| --- | --- | --- |
| 148 | 332 | CC[C@H](CNC(=O)c1scnc1C(F)(F)F)C(=O)N[C@@H]1C(=O)N2CC3(CC3)CN2C(=O)c2ccccc21 [Example 57, N-((R)-2-(((S)-5,11-Dioxo-10,11-dihydro-1H,3H,5H-spiro[benzo[d]pyr-azolo[1,2-a][1,2]diazepine-2,1′-cyclopropan]-10-yl)carbamoyl)butyl)-4-(trifluoromethyl) thiazole-5-carboxamide] |
| 101 | 191 | CC[C@H](CNC(=O)c1ccnn1C(F)F)C(=O)N[C@@H]1C(=O)N2CC3(CC3)CN2C(=O)c2ccccc21 [Example 56, 1-(Difluoromethyl)-N-((R)-2-(((S)-5,11-dioxo-10,11-dihydro-1H,3H,5H-spiro[benzo[d]pyr-azolo[1,2-a][1,2]diazepine-2,1′-cyclopropan]-10-yl)carbamoyl)butyl)-1H-pyrazole-5-carboxamide] |
| 89 | 91 | CC[C@H](CNC(=O)c1scnc1Cl)C(=O)N[C@@H]1C(=O)N2CC3(CC3)CN2C(=O)c2ccccc21 [Example 49, 4-Chloro-N-((R)-2-(((S)-5,11-dioxo-10,11-dihydro-1H,3H,5H-spiro [benzo[d]pyr-azolo[1,2-a][1,2]diazepine-2,1″-cyclopropan]-10-yl)carbamoyl)butyl) thiazole-5-carboxamide] |
| 37 | 59 | Cc1cc(-c2nc(C)c(C(=O)NC[C@H](C(=O)N[C@@H]3C(=O)N4CCCN4C(=O)c4ccccc43)C3CC3)s2)on1 [Example 41, N-((R)-2-Cyclopropyl-3-(((S)-5,11-dioxo-2,3,10,11-tetrahydro-1H,5H-benzo[d]pyrazolo [1,2-a][1,2]diazepin-10-yl)amino)-3-oxopropyl)-4-methyl-2-(3-methylisoxazol-5-yl)thiazole-5-carboxamide] |
